In US12286423B2, “Antiviral 1,3-di-oxo-indene compounds” (Novartis AG, priority 2020, dated 2025):

Experiments:
Type in all cases: cell-based
[1] = tested on: C15_C3 REPLICON; experiment: C15_C3 replicon assay
[2] = tested on: HRV A16; experiment: HRV A16 CPE inhibition assay; settings: Human rhinovirus sp.; HRV A16, cytopathic effect inhibition
Protocol: (§1) Bioactivity of the Compounds of the Invention was Determined Using the Following Methods. Determination of Drug Efficacy Against Picornaviruses Using Cytopathic Effect (CPE) Inhibition Assay
(§2) In the assay, HeLa (human cervical cancer cells), MRC-5 (human fetal lung fibroblast cells), and RD cells (derived from human rhabdomyosarcoma) were employed. For comparison, ribavirin (Riv), Pleconaril (pleco), and […] (BTA) were used as controls. Reagents were dissolved at a concentration of 10-40 mg/ml in 100% dimethyl sulfoxide (DMSO). Water-soluble reagents were dissolved in PBS (−) solution and stored at −20° C. On the day of the experiment, they were used in 3 fold to 5 fold concentrations in such a manner that the concentration of dimethyl sulfoxide in each well was between 0.5% and 1%.
(§3) Pharmaceutical efficacy was determined using a virus-induced cytopathic effect (CPE) inhibition assay. In this regard, after cells suitable for viruses were grown in 96-well plates, dilutions of viruses in DME supplemented with 2% FBS (DME/2% FBS) or MEM supplemented with 2% FBS (MEM/2% FBS) were inoculated in an amount of […] with a concentration corresponding to 100 CCID50 (50% cell culture infective dose) into each well of the plates, and incubated for 30 min-1 hr at 33° C. or 37° C. to allow the viruses to adsorb onto the cells. The culture medium was removed before aliquots of drug dilutions with various concentrations were added in an amount of 100 μl to each well. While HRV (human rhinovirus) was grown at 33° C., the other viruses were incubated in a 37° C. CO2 incubator for 2-3 days. Alternatively, the cells were cultured for 2-3 days without removal of the medium after they were added with 50 μl of each drug dilution having a 2-fold higher concentration and then with 50 μl of the virus dilution. Viruses were incubated in host HeLa cells at 37° C. for 2-3 days in DME/2% or MEM/2% FBS.
(§4) For HeLa cells, the drugs were measured for EC50 (50% maximal effective concentration), which is the concentration of a drug inducing a response halfway between the baseline and maximum, using an MTT assay. With regard to RD and MRC-5 cells, CPE was determined using FDA (Fluorescein diacetate) or MTT. In order to determine the effect of drug toxicity on efficacy results, at the time of inoculation with the virus, mock-infection was also included. A virus-free medium was added to a cell culture, which was then subjected to the same treatment as the mock-infected cells inoculated with the virus. That is, the medium was removed after one hour of incubation, and dilutions of drugs in the medium were added once more. Following incubation for 2-3 days, the cells were observed under a microscope and the drugs were determined for CC50 (50% cytotoxic concentration) at which 50% of the cells were killed, using an MTT assay in which counts of viable cells in mock-infected wells containing drugs were compared to those of viable cells in control wells containing no drugs. In an FDA hydrolysis assay, FDA was added to each well after removal of the medium, and incubated for 20-30 min before fluorescence intensity was measured using a spectrofluorometer to determine CPE in the same manner as in MTT.
(§5) In addition, antiviral effects can be calculated using Mathematical Formula 2 below: Antiviral Effect=[A(Drug/Virus)−A(Virus Control)/A(Cell control)−A(Virus Control)]
(§6) If the survival rate is 100%, its antiviral effect is 100% whereas if the survival rate is 0%, its antiviral effect is none. […]
(§7) Specifically, cells grown to confluence in 96-well plates were infected with 100 50% cell culture infected doses (CCID50) of virus. After an adsorption period of 2 hrs at 37° C., the virus was removed and serial dilutions of the compounds were added. […] After removal of the medium, 90 μl of a culture medium and 10 μl of MTS-phenazine methosulfate (Promega, Leiden, The Netherlands) were added to each well. […]

[3] = tested on: HRV A1B; experiment: HRV A1B CPE inhibition assay; settings: Human rhinovirus sp., cytopathic effect inhibition, read-out: HRV A1B_CPE (EC50 μM)
Protocol: as §1, §2, §3, §4, §5, §6, §7

[4] = tested on: HRV A29; experiment: HRV A29 CPE inhibition assay; settings: Human rhinovirus sp.; HRV A29, cytopathic effect inhibition
Protocol: as §1, §2, §3, §4, §5, §6, §7

[5] = Cytotoxicity (CC50) in mock-infected cells, MTT assay; settings: human, HeLa cells (mock-infected), 50% cytotoxic concentration, read-out: CYTOTOX (CC50 μM)
Protocol: as §4
That is, the survival rate (% survival) of mock-infected cells for cytotoxicity measurement was calculated using the Mathematical Formula 1 below: Cell Drug=Survival by [A(Drug)−A(Background solution)/A(Cell control)−A(Background×100% Solution)]
While 100% cell survival means no cytotoxicity of the drug, the highest cytotoxicity is reflected by 0% cell survival. The 50% cytotoxic concentration was defined as the concentration required to reduce the cell number by 50%. This concentration of the drug is represented as CC50. Higher values mean lower cytotoxicity. […]
In Mathematical Formulae 3 and 4 above, • OD (CC) represents the OD of the background cell culture that is neither induced by a virus nor treated by chemical, • OD (VC) represents the OD of the control cell culture that is induced by a virus but not treated by chemical, • OD (Virus+Compound) represents the OD of the cell culture infected by a virus that has been treated with a concentrated compound, • OD (Compound) represents the OD of the cell culture that has been treated with a concentrated compound only, and • OD (Blank) represents the OD of the well to which only the cell culture has been added.
The effective concentration (EC50) represents the concentration of a drug at which 50% of cells are allowed to survive by CPE of an induced virus, and the cytotoxicity concentration (CC50) represents the concentration of a drug at which a compound has killed 50% of cells, and they were calculated by the logarithmic interpolation.

[6] = tested on: HRV B14; experiment: HRV B14 CPE inhibition assay; settings: Human rhinovirus sp.; HRV B14, cytopathic effect inhibition
Protocol: as §1, §2, §3, §4, §5, §6, §7

Row | SMILES | EC50 [1] [µM] | EC50 [2] [µM] | EC50 [3] [µM] | EC50 [4] [µM] | CC50 [5] [µM] | EC50 [6] [µM]
1 | Cc1cc(S(C)(=O)=O)[nH]c1C(=O)NC12C(=O)c3c(N)cccc3C1(O)Oc1cc(C3C[C@H]3C)ccc12 (stereo in doubt) [Example 21, N-(1-amino-4b-hydroxy-7-((1S,2R)-2-methylcyclopropyl)-10-oxo-4b,10-dihydro-9bH-indeno[1,2-b]benzofuran-9b-yl)-3-methyl-5-(methylsulfonyl)-1H-pyrrole-2-carboxamide] | 2.91 | 0.026 | 0.07 | 0.074 | 37.3 | 0.016
2 | C[C@H](c1ccc2c(c1)O[C@]1(O)c3cccc(N)c3C(=O)[C@]21NC(=O)c1cccc(O)n1)C1CC1 [Example 3, N-((4bR,9bR)-1-amino-7-((S)-1-cyclopropylethyl)-4b-hydroxy-10-oxo-4b,10-dihydro-9bH-indeno[1,2-b]benzofuran-9b-yl)-6-hydroxypicolinamide] | 4.81 | 0.057 | 0.033 | 0.02 | 32.3 | 0.016
3 | C[C@H](c1ccc2c(c1)O[C@]1(O)c3cccc(N)c3C(=O)[C@]21NC(=O)CN1CCC1)C1CC1 [Example 5, N-((4bR,9bR)-1-amino-7-((S)-1-cyclopropylethyl)-4b-hydroxy-10-oxo-4b,10-dihydro-9bH-indeno[1,2-b]benzofuran-9b-yl)-2-(azetidin-1-yl)acetamide] | 1.35 | 0.072 | 0.036 | 0.039 | 19.2 | 0.016
4 | C[C@@H](c1ccc2c(c1)O[C@]1(O)c3cccc(N)c3C(=O)[C@]21NC(=O)c1cccc(O)n1)C1CC1 [Example 8, N-((4bR,9bR)-1-amino-7-((R)-1-cyclopropylethyl)-4b-hydroxy-10-oxo-4b,10-dihydro-9bH-indeno[1,2-b]benzofuran-9b-yl)-6-hydroxypicolinamide] | 5.33 | 0.068 | 0.031 | 0.035 | 35 | 0.016
5 | Cc1cc(S(=O)(=O)N2CCN(C)CC2)[nH]c1C(=O)NC12C(=O)c3c(N)cccc3C1(O)Oc1cc(C(C)C)ccc12 (centres unmarked) [Example 13, N-(1-amino-4b-hydroxy-7-isopropyl-10-oxo-4b,10-dihydro-9bH-indeno[1,2-b]benzofuran-9b-yl)-3-methyl-5-((4-methylpiperazin-1-yl)sulfonyl)-1H-pyrrole-2-carboxamide] | 0.682 | 0.027 | 0.016 | 0.05 | 32.1 | 0.016
6 | Cc1cc(S(=O)(=O)N2CCN(C)CC2)[nH]c1C(=O)N[C@]12C(=O)c3c(N)cccc3[C@@]1(O)Oc1cc([C@H]3C[C@@H]3C)ccc12 [Example 14, N-((4bR,9bR)-1-amino-4b-hydroxy-7-((1S,2S)-2-methylcyclopropyl)-10-oxo-4b,10-dihydro-9bH-indeno[1,2-b]benzofuran-9b-yl)-3-methyl-5-((4-methylpiperazin-1-yl)sulfonyl)-1H-pyrrole-2-carboxamide] | 0.516 | 0.023 | 0.016 | 0.03 | 21.9 | 0.016
7 | C[C@@H](c1ccc2c(c1)O[C@]1(O)c3cccc(N)c3C(=O)[C@]21NC(=O)CN1CCC1)C1CC1 [Example 17, N-((4bR,9bR)-1-amino-7-((R)-1-cyclopropylethyl)-4b-hydroxy-10-oxo-4b,10-dihydro-9bH-indeno[1,2-b]benzofuran-9b-yl)-2-(azetidin-1-yl)acetamide] | 1.36 | 0.07 | 0.016 | 0.018 | 24.5 | 0.016
8 | Cc1c(C(=O)N[C@]23C(=O)c4c(N)cccc4[C@@]2(O)Oc2cc([C@@H](C)C4CC4)ccc23)[nH]c(=O)n1C [Example 18, N-((4bR,9bR)-1-amino-7-((S)-1-cyclopropylethyl)-4b-hydroxy-10-oxo-4b,10-dihydro-9bH-indeno[1,2-b]benzofuran-9b-yl)-1,5-dimethyl-2-oxo-2,3-dihydro-1H-imidazole-4-carboxamide] | 1.65 | 0.05 | 0.018 | 0.016 | 31.8 | 
9 | Cc1c(C(=O)N[C@]23C(=O)c4c(N)cccc4[C@@]2(O)Oc2cc([C@H](C)C4CC4)ccc23)[nH]c(=O)n1C [Example 22, N-((4bR,9bR)-1-amino-7-((R)-1-cyclopropylethyl)-4b-hydroxy-10-oxo-4b,10-dihydro-9bH-indeno[1,2-b]benzofuran-9b-yl)-1,5-dimethyl-2-oxo-2,3-dihydro-1H-imidazole-4-carboxamide] | 1.89 | 0.063 | 0.041 | 0.023 | 34.9 | 0.016
10 | Cc1cc(S(=O)(=O)N2CCN(C)CC2)[nH]c1C(=O)NC12C(=O)c3c(N)cccc3C1(O)Oc1cc([C@H]3C[C@H]3C)ccc12 (stereo partly drawn) [Example 24, N-(1-amino-4b-hydroxy-7-((1S,2R)-2-methylcyclopropyl)-10-oxo-4b,10-dihydro-9bH-indeno[1,2-b]benzofuran-9b-yl)-3-methyl-5-((4-methylpiperazin-1-yl)sulfonyl)-1H-pyrrole-2-carboxamide] | 0.34 | 0.039 | 0.016 | 0.037 | 28.4 | 0.016
11 | Cc1cc(S(C)(=O)=O)[nH]c1C(=O)NC12C(=O)c3c(N)cccc3C1(O)Oc1cc([C@@H]3C[C@@H]3C)ccc12 (stereo partly drawn) [Example 26, N-(1-amino-4b-hydroxy-7-((1R,2S)-2-methylcyclopropyl)-10-oxo-4b,10-dihydro-9bH-indeno[1,2-b]benzofuran-9b-yl)-3-methyl-5-(methylsulfonyl)-1H-pyrrole-2-carboxamide] | 8.37 | 0.093 | 0.17 | 0.274 | 37.1 | 0.016
12 | Cc1c(S(C)(=O)=O)c[nH]c1C(=O)NC12C(=O)c3c(N)cccc3C1(O)Oc1cc([C@H]3C[C@H]3C)ccc12 (stereo partly drawn) [Example 27, N-(1-amino-4b-hydroxy-7-((1S,2R)-2-methylcyclopropyl)-10-oxo-4b,10-dihydro-9bH-indeno[1,2-b]benzofuran-9b-yl)-3-methyl-4-(methylsulfonyl)-1H-pyrrole-2-carboxamide] | 0.705 | 0.084 | 0.02 | 0.079 | 40.4 | 0.016
